The source of these data is US11452717B2, “Small molecule activators of nicotinamide phosphoribosyltransferase (NAMPT) and uses thereof” (Sanford Burnham Prebys Medical Discovery Institute, priority 2017, dated 2022).

The assay has as its target NAMPT enzyme (Homo sapiens (Human), UniProt P43490). The assay can be described thus: Enzyme Assay and NMN Detection (NAMPT reaction, fluorescence detection of NMN). The assay is classed as biochemical. To be noted: NAMPT activation, NMN formation. How it is done:
NAMPT reaction was performed in 50 mM HEPES, pH 7.5, containing 5 mM MgCl2, 0.1% Prionex, 0.005% Tween 20, and 1 mM TCEP at room temperature in Greiner 384-well black polypropylene plates. The concentration of substrates and enzymes in the final assay were as follows: ATP (120 uM), nicotinamide (5 uM), phosphoribosylpyrophosphate (6.25 uM), NAMPT enzyme (16 nM), pyrophosphatase (0.04 U/ml) in the final reaction volume 6 uL. Following 2 h incubation the reaction was stopped by addition 2.5 ul 20% acetophenone in dimethyl sulfoxide (DMSO) and 2.5 ul 2 MKOH. Plates were centrifuges and added with 10.5 ul 88% formic acid. The fluorescence (ex380/em460) was measured following another short incubation and 30 min incubation. The increased concentration of NMN was determined from a calibration curve obtained at the time of experiment.

Values joined by “and” are separate entries in the source; they are usually repeats but may differ in a detail not shown here. Identical values can stand only once.

Sequence of NAMPT enzyme (P43490 whole entry, species assumed): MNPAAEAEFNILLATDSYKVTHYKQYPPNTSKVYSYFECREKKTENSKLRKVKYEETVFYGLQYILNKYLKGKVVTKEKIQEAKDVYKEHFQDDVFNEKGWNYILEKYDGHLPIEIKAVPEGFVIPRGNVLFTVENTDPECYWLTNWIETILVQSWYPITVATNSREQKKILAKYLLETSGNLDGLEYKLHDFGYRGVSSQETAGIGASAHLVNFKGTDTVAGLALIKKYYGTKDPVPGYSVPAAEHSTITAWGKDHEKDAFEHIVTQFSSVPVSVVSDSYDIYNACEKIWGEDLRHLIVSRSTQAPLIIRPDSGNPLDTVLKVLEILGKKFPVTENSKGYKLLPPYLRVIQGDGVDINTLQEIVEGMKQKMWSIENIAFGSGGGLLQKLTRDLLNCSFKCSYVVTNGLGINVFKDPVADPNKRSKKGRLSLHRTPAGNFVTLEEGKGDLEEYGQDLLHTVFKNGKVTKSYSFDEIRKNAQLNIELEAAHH

On to `O=C(NCc1cn[nH]c1)Nc1ccc(S(=O)(=O)c2ccccc2-c2cccnc2)cc1` [1-(1H-Pyrazol-4-ylmethyl)-3-[4-(2-pyridin-3-yl-benzenesulfonyl)-phenyl]-urea], for which, under “Table B-4”, the EC50 (as a rule, the concentration giving half of the maximal effect) is 100 to 2000 nM.

`O=C(NCc1cn[nH]c1)Nc1ccc(S(=O)(=O)c2ccccc2-c2ccncc2)cc1` [1-(1H-Pyrazol-4-ylmethyl)-3-[4-(2-pyridin-4-yl-benzenesulfonyl)-phenyl]-urea]: the EC50 (Table B-4) was in the range of 100 to 2000 nM.

Regarding `O=C(NCc1cn[nH]c1)Nc1ccc(S(=O)(=O)c2ccccc2OC(F)(F)F)cc1` [1-(1H-Pyrazol-4-ylmethyl)-3-[4-(2-trifluoromethoxy-benzenesulfonyl)-phenyl]-urea], where the note is “Table B-4”, the EC50 was under 100 nM.

Turning to `O=C(NCc1cn[nH]c1)Nc1ccc(S(=O)(=O)c2ccccc2C(F)(F)F)cc1` [1-(1H-Pyrazol-4-ylmethyl)-3-[4-(2-trifluoromethyl-benzenesulfonyl)-phenyl]-urea], the EC50 (Table B-4) fell in the range of 100 to 2000 nM.

Molecule `O=C(NCc1cn[nH]c1)Nc1ccc(S(=O)(=O)c2cccc(OC(F)(F)F)c2)cc1` [1-(1H-Pyrazol-4-ylmethyl)-3-[4-(3-trifluoromethoxy-benzenesulfonyl)-phenyl]-urea] returned a concentration giving a half-maximal response (EC50) (Table B-4) of under 100 nM.

In turn, `Cc1cccc(-c2csc(Nc3ccc(NC(=O)NCc4cn[nH]c4)cc3)n2)c1` [1-(1H-Pyrazol-4-ylmethyl)-3-[4-(4-m-tolyl-thiazol-2-ylamino)-phenyl]-urea] gave a concentration giving a half-maximal response (EC50) (Table B-4) of 100 to 2000 nM.

With `Cc1ccccc1-c1csc(Nc2ccc(NC(=O)NCc3cn[nH]c3)cc2)n1` [1-(1H-Pyrazol-4-ylmethyl)-3-[4-(4-o-tolyl-thiazol-2-ylamino)-phenyl]-urea], the EC50 (Table B-4) lay within 100 to 2000 nM.

`Cc1ccc(-c2csc(Nc3ccc(NC(=O)NCc4cn[nH]c4)cc3)n2)cc1` [1-(1H-Pyrazol-4-ylmethyl)-3-[4-(4-p-tolyl-thiazol-2-ylamino)-phenyl]-urea] had an EC50 (Table B-4) of 2000 to 5000 nM.

Regarding `O=C(NCc1cn[nH]c1)Nc1ccc(S(=O)(=O)c2ccc(OC(F)(F)F)cc2)cc1` [1-(1H-Pyrazol-4-ylmethyl)-3-[4-(4-trifluoromethoxy-benzenesulfonyl)-phenyl]-urea], under “Table B-4”, the concentration giving a half-maximal response (EC50) was 100 to 2000 nM.

The molecule `O=C(NCc1cn[nH]c1)Nc1ccc(S(=O)(=O)c2cccnc2)cc1` [1-(1H-Pyrazol-4-ylmethyl)-3-[4-(pyridine-3-sulfonyl)-phenyl]-urea] came in with an EC50 (Table B-4) of 100 to 2000 nM.

Take `O=C(NCc1cn[nH]c1)Nc1ccc(S(=O)(=O)c2ncccn2)cc1` [1-(1H-Pyrazol-4-ylmethyl)-3-[4-(pyrimidine-2-sulfonyl)-phenyl]-urea]: the EC50 (Table B-4) lay in the range of 2000 to 5000 nM.

Regarding `O=C(NCc1cn[nH]c1)Nc1ccc(S(=O)(=O)c2nccs2)cc1` [1-(1H-Pyrazol-4-ylmethyl)-3-[4-(thiazole-2-sulfonyl)-phenyl]-urea], where the note is “Table B-4”, the EC50 is 2000 to 5000 nM and 100 to 2000 nM.

`Cc1ccccc1S(=O)(=O)c1ccc(NC(=O)NCc2cn[nH]c2)cc1` [1-(1H-Pyrazol-4-ylmethyl)-3-[4-(toluene-2-sulfonyl)-phenyl]-urea] showed an EC50 (Table B-4) of under 100 nM.

For the setting “Table B-4”, `Cc1cccc(S(=O)(=O)c2ccc(NC(=O)NCc3cn[nH]c3)cc2)c1` [1-(1H-Pyrazol-4-ylmethyl)-3-[4-(toluene-3-sulfonyl)-phenyl]-urea] showed an EC50 of 100 to 2000 nM.

`Cc1ccc(S(=O)(=O)c2ccc(NC(=O)NCc3cn[nH]c3)cc2)cc1` [1-(1H-Pyrazol-4-ylmethyl)-3-[4-(toluene-4-sulfonyl)-phenyl]-urea]: the concentration giving a half-maximal response (EC50) (Table B-4) lay within 100 to 2000 nM.

Consider `O=C(NCc1cn[nH]c1)Nc1ccc(S(=O)(=O)C2CCN(C3CCOCC3)CC2)cc1` [1-(1H-Pyrazol-4-ylmethyl)-3-{4-[1-(tetrahydro-pyran-4-yl)-piperidine-4-sulfonyl]-phenyl}-urea], for which the EC50 reads like this: (Table B-4) 100 to 2000 nM; (Table B-6) 100 to 2000 nM.

`O=C(NCc1cnco1)Nc1ccc(NS(=O)(=O)Cc2ccccc2Cl)cc1` [1-(2-Chlorophenyl)-N-(4-(3-(oxazol-5-ylmethyl)ureido)phenyl)methanesulfonamide] registered an EC50 (Table B-5) of under 100 nM.

`O=C(NCc1ccncc1)Nc1ccc(NS(=O)(=O)Cc2ccccc2Cl)cc1` [1-(2-chlorophenyl)-N-(4-(3-(pyridin-4-ylmethyl)ureido)phenyl)methanesulfonamide] registered an EC50 (Table B-2) of under 100 nM.

The molecule `O=C(NCc1cnco1)Nc1ccc(NS(=O)(=O)Cc2ccc(Cl)c(Cl)c2)cc1` [1-(3,4-Dichlorophenyl)-N-(4-(3-(oxazol-5-ylmethyl)ureido)phenyl)methanesulfonamide] registered a half-maximal effective concentration (EC50) (Table B-5) of under 100 nM.

In turn, `O=C(NCc1ccncc1)Nc1cccc(S(=O)(=O)N2CCOCC2)c1` [1-(3-(morpholinosulfonyl)phenyl)-3-(pyridin-4-ylmethyl)urea] displayed an EC50 (Table B-2) of over 20000 nM.

`O=C(NCc1cnco1)Nc1ccc(NS(=O)(=O)Cc2cccc(Cl)c2)cc1` [1-(3-Chlorophenyl)-N-(4-(3-(oxazol-5-ylmethyl)ureido)phenyl)methanesulfonamide] registered a half-maximal effective concentration (EC50) (Table B-5) of under 100 nM.

As for `N#Cc1cc(NC(=O)NCc2ccncc2)ccc1S(=O)(=O)c1cc(F)cc(F)c1` [1-(3-Cyano-4-((3,5-difluorophenyl)sulfonyl)phenyl)-3-(pyridin-4-ylmethyl)urea], for the setting “Table B-6”, the concentration giving a half-maximal response (EC50) fell in the range of 100 to 2000 nM.

Regarding `O=C(NCc1ccncc1)Nc1ccc(NS(=O)(=O)Cc2cccc(Cl)c2)cc1` [1-(3-chlorophenyl)-N-(4-(3-(pyridin-4-ylmethyl)ureido)phenyl)methanesulfonamide], under “Table B-2”, the EC50 is under 100 nM.

For `Cc1cccc2c1c(-c1ccc(NC(=O)NCc3ccncc3)cc1)nn2C` [1-(4-(1,4-Dimethyl-1H-indazol-3-yl)phenyl)-3-(pyridin-4-ylmethyl)urea], for the setting “Table B-6”, the EC50 lay within 100 to 2000 nM.

As for `Cc1ccc2c(c1)c(-c1ccc(NC(=O)NCc3cnco3)cc1)nn2C` [1-(4-(1,5-Dimethyl-1H-indazol-3-yl)phenyl)-3-(oxazol-5-ylmethyl)urea], where the note is “Table B-5”, the EC50 lay in the range of 5000 to 20000 nM.

Under “Table B-6”, `Cc1ccc2c(c1)c(-c1ccc(NC(=O)NCc3ccncc3)cc1)nn2C` [1-(4-(1,5-Dimethyl-1H-indazol-3-yl)phenyl)-3-(pyridin-4-ylmethyl)urea] showed an EC50 of 100 to 2000 nM.

`Cc1cccc2c(-c3ccc(NC(=O)NCc4cnco4)cc3)nn(C)c12` [1-(4-(1,7-Dimethyl-1H-indazol-3-yl)phenyl)-3-(oxazol-5-ylmethyl)urea] returned an EC50 (Table B-5) of 2000 to 5000 nM.

As to `Cc1cccc2c(-c3ccc(NC(=O)NCc4ccncc4)cc3)nn(C)c12` [1-(4-(1,7-Dimethyl-1H-indazol-3-yl)phenyl)-3-(pyridin-4-ylmethyl)urea], under “Table B-6”, the EC50 lay in the range of 100 to 2000 nM.

In turn, `Cn1nc(-c2ccc(NC(=O)NCc3ccncc3)cc2)c2ccncc21` [1-(4-(1-Methyl-1H-pyrazolo[3,4-c]pyridin-3-yl)phenyl)-3-(pyridin-4-ylmethyl)urea] came in with an EC50 (Table B-6) of 100 to 2000 nM.

Molecule `CN1CCN(C(=O)c2ccc(NC(=O)NCc3ccncc3)cc2)CC1` [1-(4-(4-Methylpiperazine-1-carbonyl)phenyl)-3-(pyridin-4-ylmethyl)urea] returned a half-maximal effective concentration (EC50) (Table B-2) of 5000 to 20000 nM.

For the setting “Table B-5”, `O=C(NCc1cnco1)Nc1ccc(-c2ncc(Cc3ccccc3)s2)cc1` [1-(4-(5-Benzylthiazol-2-yl)phenyl)-3-(oxazol-5-ylmethyl)urea] gave an EC50 of 5000 to 20000 nM.

`O=C(NCc1ccncc1)Nc1ccc(-c2ncc(Cc3ccccc3)s2)cc1` [1-(4-(5-Benzylthiazol-2-yl)phenyl)-3-(pyridin-4-ylmethyl)urea] came in with an EC50 (Table B-6) of 5000 to 20000 nM.

`Cn1nc(-c2ccc(NC(=O)NCc3cnco3)cc2)c2cc(Cl)ccc21` [1-(4-(5-Chloro-1-methyl-1H-indazol-3-yl)phenyl)-3-(oxazol-5-ylmethyl)urea] registered an EC50 (Table B-5) of 100 to 2000 nM.

In the case of `Cn1nc(-c2ccc(NC(=O)NCc3ccncc3)cc2)c2cc(Cl)ccc21` [1-(4-(5-Chloro-1-methyl-1H-indazol-3-yl)phenyl)-3-(pyridin-4-ylmethyl)urea], for the setting “Table B-6”, the concentration for a half-maximal effect (EC50) was 2000 to 5000 nM.

`O=C(NCc1ccncc1)Nc1ccc(C(=O)N2CC3CCC(C2)O3)cc1` [1-(4-(8-Oxa-3-azabicyclo[3.2.1]octane-3-carbonyl)phenyl)-3-(pyridin-4-ylmethyl)urea]: the half-maximal effective concentration (EC50) (Table B-2) was 100 to 2000 nM.

In turn, `O=C(NCc1cnco1)Nc1ccc(S(=O)(=O)c2cn[nH]c2)cc1` [1-(4-((1H-pyrazol-4-yl)sulfonyl)phenyl)-3-(oxazol-5-ylmethyl)urea] gave an EC50 (Table B-5) of 100 to 2000 nM.

Regarding `O=C(NCc1ccncc1)Nc1ccc(S(=O)(=O)c2cn[nH]c2)cc1` [1-(4-((1H-pyrazol-4-yl)sulfonyl)phenyl)-3-(pyridin-4-ylmethyl)urea], the concentration for a half-maximal effect (EC50) (Table B-6) was 100 to 2000 nM.

As to `COc1ccc(-c2ccccc2S(=O)(=O)c2ccc(NC(=O)NCc3ccncc3)cc2)cn1` [1-(4-((2-(6-Methoxypyridin-3-yl)phenyl)sulfonyl)phenyl)-3-(pyridin-4-ylmethyl)urea], the half-maximal effective concentration (EC50) (Table B-6) lay within 5000 to 20000 nM.

Regarding `O=C(NCc1cnco1)Nc1ccc(S(=O)(=O)c2ccccc2F)cc1` [1-(4-((2-Fluorophenyl)sulfonyl)phenyl)-3-(oxazol-5-ylmethyl)urea], for the setting “Table B-5”, the EC50 was 100 to 2000 nM.

Molecule `O=C(NCc1ccncc1)Nc1ccc(S(=O)(=O)c2ccccc2F)cc1` [1-(4-((2-Fluorophenyl)sulfonyl)phenyl)-3-(pyridin-4-ylmethyl)urea] had a 50% effective concentration (EC50) (Table B-6) of 100 to 2000 nM.

For the setting “Table B-5”, `COc1ccccc1S(=O)(=O)c1ccc(NC(=O)NCc2cnco2)cc1` [1-(4-((2-Methoxyphenyl)sulfonyl)phenyl)-3-(oxazol-5-ylmethyl)urea] had a concentration for a half-maximal effect (EC50) of 100 to 2000 nM.

As for `O=C(NCc1ccncc1)Nc1ccc(S(=O)(=O)c2ccccc2-c2ccccc2Cl)cc1` [1-(4-((2′-Chloro-[1,l′-biphenyl]-2-yl)sulfonyl)phenyl)-3-(pyridin-4-ylmethyl)urea], the concentration for a half-maximal effect (EC50) (Table B-6) was 100 to 2000 nM.
